Conditions: Crystal; for vapor or sublimation pressure: Calculated from knudsen effusion weight loss

[Np+4].[O-2].[O-2] [neptunium(IV) oxide]
Conditions | mass density [kg/m3]
295 K, 101.33 kPa, X-ray diffraction | 11140

Conditions | vapor or sublimation pressure [kPa]
2054.9 K | 3.295e-05
2056.2 K | 3.366e-05
2057.9 K | 3.51e-05
2060.1 K | 3.662e-05
2062.3 K | 3.796e-05
2064.8 K | 3.874e-05
2067.1 K | 4.025e-05
2069.1 K | 4.246e-05
2071.4 K | 4.393e-05
2073.9 K | 4.623e-05
2076.6 K | 4.712e-05
2078.6 K | 4.956e-05
2081.3 K | 5.123e-05
2083.9 K | 5.383e-05
2086.1 K | 5.495e-05
2088.4 K | 5.784e-05
2090.9 K | 5.955e-05
2093.2 K | 6.187e-05
2095.7 K | 6.433e-05
2098.6 K | 6.692e-05
2100.8 K | 6.877e-05
2103.4 K | 7.176e-05
2105.9 K | 7.462e-05
2108.1 K | 7.729e-05
2111.2 K | 8.054e-05
2113.1 K | 8.434e-05
2115.9 K | 8.748e-05
2118.1 K | 9.035e-05
2120.3 K | 9.314e-05
2122.9 K | 9.644e-05
2125.2 K | 9.94e-05
2127.9 K | 0.0001045
2130.5 K | 0.0001097
2132.7 K | 0.0001123
2135.3 K | 0.0001157
2137.4 K | 0.0001217
2139.9 K | 0.0001239
2142.7 K | 0.0001288
2145.2 K | 0.0001332
2147.5 K | 0.0001386
2149.8 K | 0.0001358
2150.2 K | 0.0001442
2151.3 K | 0.0001375
2152.2 K | 0.0001394
2152.6 K | 0.0001498
2152.8 K | 0.0001433
2154.4 K | 0.0001447
2154.9 K | 0.0001542
2155.9 K | 0.0001583
2156 K | 0.0001482
2157.3 K | 0.0001517
2158.4 K | 0.0001543
2160.3 K | 0.0001598
2161.7 K | 0.0001597
2162.9 K | 0.0001642
2164.5 K | 0.0001713
2166.2 K | 0.0001748
2167.4 K | 0.000178
2168.5 K | 0.0001787
2170.6 K | 0.0001874
2172.1 K | 0.0001888
2173.8 K | 0.0001909
2175.3 K | 0.0001994
2176.6 K | 0.0002036
2178.6 K | 0.0002068
2179.8 K | 0.0002135
2181 K | 0.0002199
2183.2 K | 0.0002228
2184.5 K | 0.0002278
2186.2 K | 0.0002338
2187.7 K | 0.0002364
2189.2 K | 0.0002417
2191.4 K | 0.0002525
2193.1 K | 0.0002543
2194.3 K | 0.0002622
2196 K | 0.0002656
2197.8 K | 0.0002726
2199.7 K | 0.0002771
2200.8 K | 0.0002867
2202.4 K | 0.0002946
2204.7 K | 0.0002992
2206.6 K | 0.0003045
2207.4 K | 0.0003104
2209.3 K | 0.0003162
2211.2 K | 0.0003286
2212.7 K | 0.0003354
2214.4 K | 0.0003408
2216.4 K | 0.0003502
2218.1 K | 0.0003597
2218.9 K | 0.0003644
2220.7 K | 0.0003741
2222.9 K | 0.0003833
2224.6 K | 0.0003931
2225.9 K | 0.0004013
2227.7 K | 0.000407
2229.2 K | 0.0004206
2231 K | 0.0004254
2232.9 K | 0.0004344
2233.8 K | 0.0004466
2235.8 K | 0.0004515
2237.8 K | 0.0004628
2239.3 K | 0.0004711
2240.7 K | 0.0004792
2242.2 K | 0.0004974
2243.7 K | 0.0005095
2245.8 K | 0.0005148
2247.3 K | 0.0005247
2249.2 K | 0.00054
2250.6 K | 0.0005507
2252.1 K | 0.0005593
2254.2 K | 0.0005708
2255.6 K | 0.0005856
2257.4 K | 0.0005944
2258.3 K | 0.0006052
2258.7 K | 0.0006098
2259.2 K | 0.0006132

From the NIST ThermoML archive (doi:10.1016/j.jct.2016.07.040)
